In ChEMBL document CHEMBL2086385, “Synthesis and antimicrobial evaluation of L-phenylalanine-derived C5-substituted rhodanine and chalcone derivatives containing thiobarbituric acid or 2-thioxo-4-thiazolidinone” (2012):
≈ marks a conversion by molar mass, not a printed value.

Assays:
Assay type in all cases: functional
Staphylococcus aureus [1] = test: Antibacterial activity against Staphylococcus aureus KCTC 209 after 24 hrs by broth microdilution method; conditions: KCTC 209, 24 h
Staphylococcus aureus [2] = test: Antibacterial activity against Staphylococcus aureus KCTC 503 after 24 hrs by broth microdilution method; conditions: KCTC 503, 24 h
Staphylococcus aureus [3] = test: Antibacterial activity against Staphylococcus aureus RN4220 after 24 hrs by broth microdilution method; conditions: RN4220, 24 h
Escherichia coli = test: Antibacterial activity against Escherichia coli CCARM 1356 after 24 hrs by broth microdilution method; conditions: CCARM 1356, 24 h
Staphylococcus aureus [4] = test: Antibacterial activity against methicillin-resistant Staphylococcus aureus CCARM 3167 clinical isolate after 24 hrs by broth microdilution method; conditions: CCARM 3167, 24 h
Staphylococcus aureus [5] = test: Antibacterial activity against methicillin-resistant Staphylococcus aureus CCARM 3506 clinical isolate after 24 hrs by broth microdilution method; conditions: CCARM 3506, 24 h
Staphylococcus aureus [6] = test: Antibacterial activity against quinolone-resistant Staphylococcus aureus CCARM 3505 clinical isolate after 24 hrs by broth microdilution method; conditions: CCARM 3505, 24 h
Staphylococcus aureus [7] = test: Antibacterial activity against quinolone-resistant Staphylococcus aureus CCARM 3519 clinical isolate after 24 hrs by broth microdilution method; conditions: CCARM 3519, 24 h
Staphylococcus aureus [8] = test: Ratio of norfloxacin MIC to compound MIC for methicillin-resistant Staphylococcus aureus CCARM 3167 clinical isolate
Staphylococcus aureus [9] = test: Ratio of norfloxacin MIC to compound MIC for methicillin-resistant Staphylococcus aureus CCARM 3506 clinical isolate
Staphylococcus aureus [10] = test: Ratio of norfloxacin MIC to compound MIC for quinolone-resistant Staphylococcus aureus CCARM 3505 clinical isolate
Staphylococcus aureus [11] = test: Ratio of norfloxacin MIC to compound MIC for quinolone-resistant Staphylococcus aureus CCARM 3519 clinical isolate

Compound | MIC (Staphylococcus aureus [1]) | MIC (Staphylococcus aureus [2]) | MIC (Staphylococcus aureus [3]) | MIC (Escherichia coli) | MIC (Staphylococcus aureus [4]) | MIC (Staphylococcus aureus [5]) | MIC (Staphylococcus aureus [6]) | MIC (Staphylococcus aureus [7]) | Ratio (Staphylococcus aureus [8]) | Ratio (Staphylococcus aureus [9]) | Ratio (Staphylococcus aureus [10]) | Ratio (Staphylococcus aureus [11])
O=C(/C=C/c1ccc(/C=C2\SC(=S)N([C@@H](Cc3ccccc3)C(=O)O)C2=O)cc1)c1ccccc1Br | 16 µg/mL (≈ 27.7 µM) | 16 µg/mL (≈ 27.7 µM) | 2 µg/mL (≈ 3.46 µM) | > 64 µg/mL | 2 µg/mL (≈ 3.46 µM) | 4 µg/mL (≈ 6.91 µM) | 4 µg/mL (≈ 6.91 µM) | 4 µg/mL (≈ 6.91 µM) | 2 | 2 | 2 | 2
O=C(O)[C@H](Cc1ccccc1)N1C(=O)/C(=C\c2ccc(OCc3cccc(F)c3)cc2)SC1=S | 16 µg/mL (≈ 32.4 µM) | 16 µg/mL (≈ 32.4 µM) | 4 µg/mL (≈ 8.1 µM) | > 64 µg/mL | 8 µg/mL (≈ 16.2 µM) | 8 µg/mL (≈ 16.2 µM) | 8 µg/mL (≈ 16.2 µM) | 8 µg/mL (≈ 16.2 µM) | 2 | 2 | 2 | 2
O=C(O)[C@H](Cc1ccccc1)N1C(=O)/C(=C\c2ccc(OCc3cccc(Cl)c3)cc2)SC1=S | 8 µg/mL (≈ 15.7 µM) | 8 µg/mL (≈ 15.7 µM) | 2 µg/mL (≈ 3.92 µM) | > 64 µg/mL | 4 µg/mL (≈ 7.84 µM) | 4 µg/mL (≈ 7.84 µM) | 4 µg/mL (≈ 7.84 µM) | 4 µg/mL (≈ 7.84 µM) | 2 | 2 | 2 | 2
COc1ccccc1C(=O)/C=C/c1ccc(/C=C2\SC(=S)N([C@@H](Cc3ccccc3)C(=O)O)C2=O)cc1 | 16 µg/mL (≈ 30.2 µM) | 16 µg/mL (≈ 30.2 µM) | 8 µg/mL (≈ 15.1 µM) | > 64 µg/mL | 8 µg/mL (≈ 15.1 µM) | 8 µg/mL (≈ 15.1 µM) | 4 µg/mL (≈ 7.55 µM) | 16 µg/mL (≈ 30.2 µM) | 2 | 2 | 2 | 2
O=C(/C=C/c1ccc(/C=C2\SC(=S)N([C@@H](Cc3ccccc3)C(=O)O)C2=O)cc1)c1ccc2ccccc2c1 | 8 µg/mL (≈ 14.6 µM) | 8 µg/mL (≈ 14.6 µM) | 2 µg/mL (≈ 3.64 µM) | > 64 µg/mL | 2 µg/mL (≈ 3.64 µM) | 4 µg/mL (≈ 7.28 µM) | 2 µg/mL (≈ 3.64 µM) | 2 µg/mL (≈ 3.64 µM) | 2 | 2 | 2 | 2
O=C(O)[C@H](Cc1ccccc1)N1C(=O)/C(=C\c2ccc(OCc3cccc(Br)c3)cc2)SC1=S | 4 µg/mL (≈ 7.21 µM) | 4 µg/mL (≈ 7.21 µM) | 2 µg/mL (≈ 3.61 µM) | > 64 µg/mL | 4 µg/mL (≈ 7.21 µM) | 4 µg/mL (≈ 7.21 µM) | 4 µg/mL (≈ 7.21 µM) | 8 µg/mL (≈ 14.4 µM) | 2 | 2 | 2 | 2
O=C(O)[C@H](Cc1ccccc1)N1C(=O)/C(=C\c2ccc(OCc3ccccc3)cc2)SC1=S | 8 µg/mL (≈ 16.8 µM) | 8 µg/mL (≈ 16.8 µM) | 2 µg/mL (≈ 4.21 µM) | > 64 µg/mL | 4 µg/mL (≈ 8.41 µM) | 8 µg/mL (≈ 16.8 µM) | 4 µg/mL (≈ 8.41 µM) | 8 µg/mL (≈ 16.8 µM) | 2 | 2 | 2 | 2
O=C(/C=C/c1ccc(/C=C2\SC(=S)N([C@@H](Cc3ccccc3)C(=O)O)C2=O)cc1)c1ccc(Cl)cc1Cl | 16 µg/mL (≈ 28.1 µM) | 16 µg/mL (≈ 28.1 µM) | 4 µg/mL (≈ 7.04 µM) | > 64 µg/mL | 4 µg/mL (≈ 7.04 µM) | 4 µg/mL (≈ 7.04 µM) | 4 µg/mL (≈ 7.04 µM) | 16 µg/mL (≈ 28.1 µM) | 2 | 2 | 2 | 2
O=C(/C=C/c1ccc(/C=C2\SC(=S)N([C@@H](Cc3ccccc3)C(=O)O)C2=O)cc1)c1ccc(F)cc1 | 16 µg/mL (≈ 30.9 µM) | 16 µg/mL (≈ 30.9 µM) | 4 µg/mL (≈ 7.73 µM) | > 64 µg/mL | 4 µg/mL (≈ 7.73 µM) | 4 µg/mL (≈ 7.73 µM) | 8 µg/mL (≈ 15.5 µM) | 8 µg/mL (≈ 15.5 µM) | 2 | 2 | 2 | 2
O=C(O)[C@H](Cc1ccccc1)N1C(=O)/C(=C\c2ccc(OCc3ccccc3Cl)cc2)SC1=S | 8 µg/mL (≈ 15.7 µM) | 8 µg/mL (≈ 15.7 µM) | 4 µg/mL (≈ 7.84 µM) | > 64 µg/mL | 4 µg/mL (≈ 7.84 µM) | 4 µg/mL (≈ 7.84 µM) | 4 µg/mL (≈ 7.84 µM) | 4 µg/mL (≈ 7.84 µM) | 2 | 2 | 2 | 2
Cc1ccc(C(=O)/C=C/c2ccc(/C=C3\SC(=S)N([C@@H](Cc4ccccc4)C(=O)O)C3=O)cc2)c(C)c1 | 16 µg/mL (≈ 30.3 µM) | 16 µg/mL (≈ 30.3 µM) | 4 µg/mL (≈ 7.58 µM) | > 64 µg/mL | 4 µg/mL (≈ 7.58 µM) | 4 µg/mL (≈ 7.58 µM) | 8 µg/mL (≈ 15.2 µM) | 8 µg/mL (≈ 15.2 µM) | 2 | 2 | 2 | 2
O=C(O)[C@H](Cc1ccccc1)N1C(=O)/C(=C\c2ccc(OCc3ccc(Cl)cc3)cc2)SC1=S | 8 µg/mL (≈ 15.7 µM) | 8 µg/mL (≈ 15.7 µM) | 2 µg/mL (≈ 3.92 µM) | > 64 µg/mL | 4 µg/mL (≈ 7.84 µM) | 4 µg/mL (≈ 7.84 µM) | 4 µg/mL (≈ 7.84 µM) | 4 µg/mL (≈ 7.84 µM) | 2 | 2 | 2 | 2
O=C(/C=C/c1ccc(/C=C2\SC(=S)N([C@@H](Cc3ccccc3)C(=O)O)C2=O)cc1)c1cccc(Br)c1 | 16 µg/mL (≈ 27.7 µM) | 16 µg/mL (≈ 27.7 µM) | 8 µg/mL (≈ 13.8 µM) | > 64 µg/mL | 8 µg/mL (≈ 13.8 µM) | 8 µg/mL (≈ 13.8 µM) | 8 µg/mL (≈ 13.8 µM) | 16 µg/mL (≈ 27.7 µM) | 2 | 2 | 2 | 2
COc1ccc(C(=O)/C=C/c2ccc(/C=C3\SC(=S)N([C@@H](Cc4ccccc4)C(=O)O)C3=O)cc2)cc1 | 16 µg/mL (≈ 30.2 µM) | 16 µg/mL (≈ 30.2 µM) | 4 µg/mL (≈ 7.55 µM) | > 64 µg/mL | 4 µg/mL (≈ 7.55 µM) | 4 µg/mL (≈ 7.55 µM) | 4 µg/mL (≈ 7.55 µM) | 4 µg/mL (≈ 7.55 µM) | 2 | 2 | 2 | 2
O=C(/C=C/c1ccc(/C=C2\SC(=S)N([C@@H](Cc3ccccc3)C(=O)O)C2=O)cc1)c1ccccc1Cl | 16 µg/mL (≈ 30 µM) | 16 µg/mL (≈ 30 µM) | 2 µg/mL (≈ 3.74 µM) | > 64 µg/mL | 2 µg/mL (≈ 3.74 µM) | 4 µg/mL (≈ 7.49 µM) | 4 µg/mL (≈ 7.49 µM) | 4 µg/mL (≈ 7.49 µM) | 2 | 2 | 2 | 2
O=C(/C=C/c1ccc(/C=C2\SC(=S)N([C@@H](Cc3ccccc3)C(=O)O)C2=O)cc1)c1ccc(Cl)cc1 | 8 µg/mL (≈ 15 µM) | 8 µg/mL (≈ 15 µM) | 2 µg/mL (≈ 3.74 µM) | > 64 µg/mL | 2 µg/mL (≈ 3.74 µM) | 4 µg/mL (≈ 7.49 µM) | 4 µg/mL (≈ 7.49 µM) | 4 µg/mL (≈ 7.49 µM) | 2 | 2 | 2 | 2
O=C(/C=C/c1ccc(/C=C2\SC(=S)N([C@@H](Cc3ccccc3)C(=O)O)C2=O)cc1)c1ccc(Br)cc1 | 4 µg/mL (≈ 6.91 µM) | 4 µg/mL (≈ 6.91 µM) | 2 µg/mL (≈ 3.46 µM) | > 64 µg/mL | 2 µg/mL (≈ 3.46 µM) | 2 µg/mL (≈ 3.46 µM) | 8 µg/mL (≈ 13.8 µM) | 2 µg/mL (≈ 3.46 µM) | 2 | 2 | 2 | 2
O=C(O)[C@H](Cc1ccccc1)N1C(=O)/C(=C\c2ccc(OCc3ccc(F)cc3)cc2)SC1=S | 8 µg/mL (≈ 16.2 µM) | 8 µg/mL (≈ 16.2 µM) | 4 µg/mL (≈ 8.1 µM) | > 64 µg/mL | 8 µg/mL (≈ 16.2 µM) | 8 µg/mL (≈ 16.2 µM) | 8 µg/mL (≈ 16.2 µM) | 8 µg/mL (≈ 16.2 µM) | 2 | 2 | 2 | 2
Cc1ccc(C(=O)/C=C/c2ccc(/C=C3\SC(=S)N([C@@H](Cc4ccccc4)C(=O)O)C3=O)cc2)cc1 | 8 µg/mL (≈ 15.6 µM) | 8 µg/mL (≈ 15.6 µM) | 2 µg/mL (≈ 3.89 µM) | > 64 µg/mL | 2 µg/mL (≈ 3.89 µM) | 2 µg/mL (≈ 3.89 µM) | 8 µg/mL (≈ 15.6 µM) | 2 µg/mL (≈ 3.89 µM) | 2 | 2 | 2 | 2
O=C(O)[C@H](Cc1ccccc1)N1C(=O)/C(=C\c2ccc(OCc3ccc(Br)cc3)cc2)SC1=S | 8 µg/mL (≈ 14.4 µM) | 8 µg/mL (≈ 14.4 µM) | 2 µg/mL (≈ 3.61 µM) | > 64 µg/mL | 4 µg/mL (≈ 7.21 µM) | 8 µg/mL (≈ 14.4 µM) | 8 µg/mL (≈ 14.4 µM) | 8 µg/mL (≈ 14.4 µM) | 2 | 2 | 2 | 2
O=C(/C=C/c1ccc(/C=C2\SC(=S)N([C@@H](Cc3ccccc3)C(=O)O)C2=O)cc1)c1cccc(Cl)c1 | 16 µg/mL (≈ 30 µM) | 16 µg/mL (≈ 30 µM) | 2 µg/mL (≈ 3.74 µM) | > 64 µg/mL | 2 µg/mL (≈ 3.74 µM) | 4 µg/mL (≈ 7.49 µM) | 8 µg/mL (≈ 15 µM) | 8 µg/mL (≈ 15 µM) | 2 | 2 | 2 | 2
Cc1ccc(COc2ccc(/C=C3\SC(=S)N([C@@H](Cc4ccccc4)C(=O)O)C3=O)cc2)cc1 | 8 µg/mL (≈ 16.3 µM) | 16 µg/mL (≈ 32.7 µM) | 4 µg/mL (≈ 8.17 µM) | > 64 µg/mL | 4 µg/mL (≈ 8.17 µM) | 8 µg/mL (≈ 16.3 µM) | 8 µg/mL (≈ 16.3 µM) | 8 µg/mL (≈ 16.3 µM) | 2 | 2 | 2 | 2
O=C1NC(=S)S/C1=C/c1ccc(/C=C/C(=O)c2ccccc2Cl)cc1 | > 64 µg/mL | > 64 µg/mL | > 64 µg/mL | > 64 µg/mL | > 64 µg/mL | > 64 µg/mL | > 64 µg/mL | > 64 µg/mL |  |  |  | 
